≈ marks a conversion by molar mass, not a printed value. Where “and” joins values, the source holds several entries; their conditions need not be identical. Identical values can stand only once. Like-named read-outs stand apart in the source and are kept apart here. Peptide text beside a SMILES is read from it.
Legend:
[1] = test system: S. aureus in patients with atopic dermatitis; assay type: cell-based, Staphylococcus aureus
[2] = test system: Superantigen negative Staphylococcus aureus (n = 48); experiment: microbe, parasite or virus in culture; settings: 18 h
[3] = test system: Staphylococcus aureus strains isolated from control group; experiment: microbe, parasite or virus in culture; settings: 18 h
[4] = test system: Superantigen positive Staphylococcus aureus (n = 52); experiment: microbe, parasite or virus in culture; settings: 18 h
[5] = test system: Staphylococcus aureus strains isolated from atopic dermatitis (AD) patients; experiment: microbe, parasite or virus in culture; settings: 18 h
[6] = test system: Staphylococcus aureus strains isolated from control group
[7] = test system: S. aureus in control group; assay type: cell-based, Staphylococcus aureus
[8] = test system: Superantigen positive Staphylococcus aureus (n = 52)
[9] = test system: Superantigen negative Staphylococcus aureus (n = 48)
[10] = test system: S. aureus isolates; settings: cited from earlier work
[11] = test system: Staphylococcus aureus strains isolated from atopic dermatitis (AD) patients
[12] = Superantigen positive (n = 52, 18 h)
[13] = Superantigen negative (n = 48, 18 h)

Structure (SMILES)	Resistance (%), resistant strains [1]	MIC50 [2]	MIC90 [2]	MIC50 [3]	MIC90 [3]	MIC50 [4]	MIC90 [4]	MIC50 [5]	MIC90 [5]	MIC Range [6]	MIC50 [8, 12]	MIC90 [8, 12]	MIC50 [9, 13]	MIC90 [9, 13]	MIC Range [8]	MIC Range [9]	MIC Range [11]	further results
CC1(C)S[C@@H]2[C@H](NC(=O)[C@H](N)c3ccccc3)C(=O)N2[C@H]1C(=O)O [Ampicillin, ampicillin]	58.5%	8 µg/mL (≈ 22.9 µM)	16 µg/mL (≈ 45.8 µM)	16 µg/mL (≈ 45.8 µM)	32 µg/mL (≈ 91.6 µM)	1 µg/mL (≈ 2.86 µM)	8 µg/mL (≈ 22.9 µM)	2 µg/mL (≈ 5.72 µM)	16 µg/mL (≈ 45.8 µM)	0.25 to 32 µg/mL	–	–	–	–	–	–	–	Resistance (%), resistant strains [7]: 4%
CC[C@H](C)[C@H](NC(=O)[C@H](CCCCN)NC(=O)[C@H](CCCCN)NC(=O)[C@H](Cc1ccccc1)NC(=O)[C@H](CC(C)C)NC(=O)[C@H](CCCCN)NC(=O)[C@H](Cc1c[nH]c2ccccc12)NC(=O)[C@@H](N)CCCCN)C(=O)NCC(=O)N[C@@H](C)C(=O)N[C@H](C(=O)N[C@@H](CC(C)C)C(=O)N[C@@H](CCCCN)C(=O)N[C@H](C(=O)N[C@@H](CC(C)C)C(N)=O)C(C)C)C(C)C [CAMEL] (H-KWKLFKKIGAVLKVL-NH2)	–	–	–	–	–	–	–	–	–	–	4 µg/mL (≈ 2.26 µM)	8 µg/mL (≈ 4.52 µM)	4 µg/mL (≈ 2.26 µM)	4 µg/mL (≈ 2.26 µM)	–	–	–	MIC Range [8, 12]: 1 to 8 µg/mL; MIC Range [9, 13]: 2 to 128 µg/mL
CC[C@H](C)[C@H](NC(=O)[C@@H](NC(=O)[C@H](CO)NC(=O)[C@H](C)NC(=O)[C@@H](NC(=O)[C@H](CCCCN)NC(=O)[C@H](CCCCN)NC(=O)[C@@H](NC(=O)[C@@H](NC(=O)[C@H](CC(=O)O)NC(=O)[C@H](Cc1ccccc1)NC(=O)[C@H](CC(C)C)NC(=O)CN)C(C)C)[C@@H](C)CC)C(C)C)C(C)C)C(=O)NCC(=O)NCC(=O)N[C@@H](CC(C)C)C(N)=O [Citropin 1.1] (H-GLFDVIKKVASVIGGL-NH2)	–	–	–	–	–	–	–	–	–	–	16 µg/mL (≈ 9.91 µM)	16 µg/mL (≈ 9.91 µM)	16 µg/mL (≈ 9.91 µM)	32 µg/mL (≈ 19.8 µM)	–	–	–	MIC Range [8, 12]: 1 to 64 µg/mL; MIC Range [9, 13]: 1 to 128 µg/mL
CC[C@H]1OC(=O)[C@H](C)[C@@H](O[C@H]2C[C@@](C)(OC)[C@@H](O)[C@H](C)O2)[C@H](C)[C@@H](O[C@@H]2O[C@H](C)C[C@H](N(C)C)[C@H]2O)[C@](C)(O)C[C@@H](C)C(=O)[C@H](C)[C@@H](O)[C@]1(C)O [Erythromycin, erythromycin]	–	0.5 µg/mL (≈ 0.681 µM)	256 µg/mL (≈ 349 µM)	1 µg/mL (≈ 1.36 µM)	> 512 µg/mL	0.5 µg/mL (≈ 0.681 µM)	> 512 µg/mL	0.5 µg/mL (≈ 0.681 µM)	> 512 µg/mL	–	–	–	–	–	–	–	–	rate of resistance [10]: 14% and 18%
CC(=O)O[C@H]1C[C@@]2(C)[C@@H](C[C@@H](O)[C@H]3[C@@]4(C)CC[C@@H](O)[C@@H](C)[C@@H]4CC[C@@]32C)/C1=C(\CCC=C(C)C)C(=O)O [Fusidic acid, fusidic acid]	15.5%	0.125 µg/mL (≈ 0.242 µM)	4 µg/mL (≈ 7.74 µM)	1 µg/mL (≈ 1.94 µM)	16 µg/mL (≈ 31 µM)	0.125 µg/mL (≈ 0.242 µM)	8 µg/mL (≈ 15.5 µM)	0.125 µg/mL (≈ 0.242 µM)	8 µg/mL (≈ 15.5 µM)	0.125 to 16 µg/mL	–	–	–	–	0.0625 to 32 µg/mL	0.0312 to 32 µg/mL	0.312 to 32 µg/mL	S. aureus isolates resistant [10]: 50%
CC[C@H](C)[C@H](NC(=O)[C@H](CCCCN)NC(=O)[C@H](CCC(=O)O)NC(=O)[C@H](CCCCN)NC(=O)[C@H](CO)NC(=O)[C@H](CCCCN)NC(=O)[C@H](CCCNC(=N)N)NC(=O)[C@H](Cc1ccccc1)NC(=O)[C@H](Cc1ccccc1)NC(=O)[C@H](CC(=O)O)NC(=O)CNC(=O)[C@H](CC(C)C)NC(=O)[C@@H](N)CC(C)C)C(=O)NCC(=O)N[C@@H](CCCCN)C(=O)N[C@@H](CCC(=O)O)C(=O)N[C@@H](Cc1ccccc1)C(=O)N[C@@H](CCCCN)C(=O)N[C@@H](CCCNC(=N)N)C(=O)N[C@H](C(=O)N[C@H](C(=O)N[C@@H](CCC(N)=O)C(=O)N[C@@H](CCCNC(=N)N)C(=O)N[C@H](C(=O)N[C@@H](CCCCN)C(=O)N[C@@H](CC(=O)O)C(=O)N[C@@H](Cc1ccccc1)C(=O)N[C@@H](CC(C)C)C(=O)N[C@@H](CCCNC(=N)N)C(=O)N[C@@H](CC(N)=O)C(=O)N[C@@H](CC(C)C)C(=O)N[C@H](C(=O)N1CCC[C@H]1C(=O)N[C@@H](CCCNC(=N)N)C(=O)N[C@H](C(=O)N[C@@H](CCC(=O)O)C(=O)N[C@@H](CO)C(=O)O)[C@@H](C)O)C(C)C)[C@@H](C)CC)C(C)C)[C@@H](C)CC [LL-37]	–	–	–	–	–	–	–	–	–	–	64 µg/mL (≈ 14.2 µM)	256 µg/mL (≈ 57 µM)	128 µg/mL (≈ 28.5 µM)	> 512 µg/mL	–	–	–	–
CCC[C@@H]1C[C@@H](C(=O)N[C@@H]([C@H]2O[C@H](SC)[C@H](O)[C@@H](O)[C@H]2O)[C@@H](C)O)N(C)C1 [Lincomycin, lincomycin]	37.5%	1 µg/mL (≈ 2.46 µM)	64 µg/mL (≈ 157 µM)	0.5 µg/mL (≈ 1.23 µM)	> 512 µg/mL	1 µg/mL (≈ 2.46 µM)	16 µg/mL (≈ 39.4 µM)	1 µg/mL (≈ 2.46 µM)	64 µg/mL (≈ 157 µM)	–	–	–	–	–	–	–	–	–
CC(=O)NC[C@H]1CN(c2ccc(N3CCOCC3)c(F)c2)C(=O)O1 [Linezolid, linezolid]	–	1 µg/mL (≈ 2.96 µM)	4 µg/mL (≈ 11.9 µM)	2 µg/mL (≈ 5.93 µM)	4 µg/mL (≈ 11.9 µM)	1 µg/mL (≈ 2.96 µM)	2 µg/mL (≈ 5.93 µM)	1 µg/mL (≈ 2.96 µM)	4 µg/mL (≈ 11.9 µM)	1 to 4 µg/mL	–	–	–	–	0.5 to 4 µg/mL	0.25 to 4 µg/mL	0.25 to 32 µg/mL	Resistance of isolates, in words [1]: none of the isolates were resistant; Susceptibility of all strains, in words [7]: sensitive
C/C(=C\C(=O)OCCCCCCCCC(=O)O)C[C@@H]1OC[C@H](C[C@@H]2O[C@H]2[C@@H](C)[C@H](C)O)[C@@H](O)[C@H]1O [Mupirocin, mupirocin]	17.5%	0.25 µg/mL (≈ 0.499 µM)	512 µg/mL (≈ 1020 µM)	0.25 µg/mL (≈ 0.499 µM)	32 µg/mL (≈ 63.9 µM)	0.5 µg/mL (≈ 0.999 µM)	> 512 µg/mL	0.5 µg/mL (≈ 0.999 µM)	> 512 µg/mL	0.125 to 32 µg/mL	–	–	–	–	–	–	–	Susceptibility of all strains, in words [7]: sensitive
CC[C@H](C)[C@H](NC(=O)CNC(=O)[C@H](CO)NC(=O)[C@H](CC(C)C)NC(=O)[C@@H](NC(=O)[C@H](CCCNC(=N)N)NC(=O)CNC(=O)[C@@H](NC(=O)[C@H](CC(C)C)NC(=O)[C@@H]1CCCN1C(=O)[C@H](CC(C)C)NC(=O)[C@@H](N)Cc1ccccc1)[C@@H](C)CC)C(C)C)C(=O)N[C@@H](CC(C)C)C(N)=O [Temporin A] (H-FLPLIGRVLSGIL-NH2)	–	–	–	–	–	–	–	–	–	–	8 µg/mL (≈ 5.73 µM)	16 µg/mL (≈ 11.5 µM)	8 µg/mL (≈ 5.73 µM)	32 µg/mL (≈ 22.9 µM)	–	–	–	MIC Range [8, 12]: 2 to 64 µg/mL; MIC Range [9, 13]: 4 to 32 µg/mL
CN(C)[C@@H]1C(O)=C(C(N)=O)C(=O)[C@@]2(O)C(O)=C3C(=O)c4c(O)cccc4[C@@](C)(O)[C@H]3C[C@@H]12 [Tetracycline, tetracycline]	15.5%	0.5 µg/mL (≈ 1.13 µM)	32 µg/mL (≈ 72 µM)	0.5 µg/mL (≈ 1.13 µM)	32 µg/mL (≈ 72 µM)	0.25 µg/mL (≈ 0.563 µM)	32 µg/mL (≈ 72 µM)	0.5 µg/mL (≈ 1.13 µM)	32 µg/mL (≈ 72 µM)	0.125 to 32 µg/mL	–	–	–	–	0.0625 to 32 µg/mL	0.0625 to 32 µg/mL	0.125 to 64 µg/mL	–
CN[C@H](CC(C)C)C(=O)N[C@H]1C(=O)N[C@@H](CC(N)=O)C(=O)N[C@H]2C(=O)N[C@H]3C(=O)N[C@H](C(=O)N[C@H](C(=O)O)c4cc(O)cc(O)c4-c4cc3ccc4O)[C@H](O)c3ccc(c(Cl)c3)Oc3cc2cc(c3O[C@@H]2O[C@H](CO)[C@@H](O)[C@H](O)[C@H]2O[C@H]2C[C@](C)(N)[C@H](O)[C@H](C)O2)Oc2ccc(cc2Cl)[C@H]1O [Vancomycin, vancomycin]	–	1 µg/mL (≈ 0.69 µM)	2 µg/mL (≈ 1.38 µM)	1 µg/mL (≈ 0.69 µM)	1 µg/mL (≈ 0.69 µM)	0.5 µg/mL (≈ 0.345 µM)	1 µg/mL (≈ 0.69 µM)	0.5 µg/mL (≈ 0.345 µM)	2 µg/mL (≈ 1.38 µM)	0.25 to 1 µg/mL	–	–	–	–	0.125 to 2 µg/mL	0.125 to 2 µg/mL	0.125 to 8 µg/mL	Resistance of isolates, in words [1]: none of the isolates were resistant; Susceptibility of all strains, in words [7]: sensitive

From article PMC5872235 (2018)
